Source: US20090081636A1, “Pharmaceutical compositions for and methods of inhibiting HCV replication” (priority 2005, published 2009)
“Also recorded” adds a separate entry of the source.

What was measured:
[1] = biological target: full-length NS3 (Hepatitis C virus genotype 1b, UniProt Q9WMX2); assay: Photo-affinity labeling binding assay, full-length NS3; design: species or system HCV; settings: 3.3 μM protein
Experimental: (§1) To determine whether acylthiourea compounds bind to NS4A, a photo-affinity labeling is carried out, in which an [^3H] labeled photo-reactive azidoacylthiourea, 1-(5-Azido-benzofuran-2-carbonyl)-3-(4-pentyloxy-3-trifluoromethyl-phenyl)-thiourea, is mixed with synthetic NS4A at various molar ratios. The mixture is incubated at 31° C. for one hour. Samples are then illuminated by a UV lamp (254 nm wavelength) at room temperature for 7 minutes. After denaturing with equal volume of Laemmli buffer containing 5% mercaptoethanol at 99° C. for 5 minutes, samples are separated on a 10-20% SDS-PAGE. After electrophoresis, the gel is fixed with 30% methanol-10% acetic acid overnight. Then the gel is treated with 3H enhancer solution (PerkinElmer) at room temperature for one hour, and subsequently with water for 30 minutes, and dried under vacuum.
(§2) One band corresponds to NS4A monomer, which is also detectable with Coomassie blue staining (FIG. 3). […] Without being bound by any particular theory, it is believed that this band may be composed largely of polymer form or aggregates of NS4A. At the same time, full-length NS3 and NS3 protease domain is included in this binding assay.

[2] = biological target: NS3 protease domain (Hepatitis C virus genotype 1b, UniProt Q9WMX2); assay: Photo-affinity labeling binding assay, NS3 protease domain; design: species or system HCV; settings: 3.3 μM protein
Chain of NS3 protease domain (Q9WMX2 1027-1208): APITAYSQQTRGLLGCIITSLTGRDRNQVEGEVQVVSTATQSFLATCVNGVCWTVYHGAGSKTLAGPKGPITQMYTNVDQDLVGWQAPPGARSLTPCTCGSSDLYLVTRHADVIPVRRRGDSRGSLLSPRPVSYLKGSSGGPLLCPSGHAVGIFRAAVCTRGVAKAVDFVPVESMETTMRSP
Experimental: as §1, §2

[3] = biological target: T1, synthetic NS4A (Hepatitis C virus genotype 1b, UniProt Q9WMX2); assay: Photo-affinity labeling of synthetic NS4A; format: binding, HCV; settings: [3H] labeled compound, UV 254 nm photolysis, SDS-PAGE
T1 construct: The full length of NS4A (54 amino acids) is synthesized; made in house
T1 sequence (Q9WMX2 1658-1711): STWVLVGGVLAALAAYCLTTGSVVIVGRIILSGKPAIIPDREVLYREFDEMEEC
Experimental: Experiments are undertaken to investigate the affinity and binding specificity of acylthiourea compounds to NS4A. The full length of NS4A (54 amino acids) is synthesized, and characterized with mass spectral analysis and HPLC profiling. An NS4A sample is then dissolved in 100% dimethylsulphoxide (DMSO) at a concentration of 2 μg/μl, and subjected to a 10-20% SDS-PAGE with a reducing reagent. A 6 kDa protein band, consistent with the size of NS4A, is detected in the gel following a Coomassie blue staining. The NS4A identity of this band is further confirmed by a Western blot with monoclonal anti-NS4A antibody.
as §1, with “Then the gel is treated with 3H enhancer solution (PerkinElmer) at room temperature for one hour, and subsequently with water for 30 minutes, and dried under vacuum.” left out

[4] = system: HCV replicon cells; assay: HCV replicon assay; format: cell-based
Experimental: Cells expressing the HCV replicon are seeded onto the internal wells of 96-well plates at a density of 7,000 cells per well. One day later, different dilutions of the test compounds are added to corresponding wells and the plates are incubated in a CO2 incubator for 72 hours. After treatment, the cells are lysed with 70 μl RLN buffer per well (50 mM Tris-HCl [pH8.0], 140 mM NaCl, 1.5 mM MgCl2, 0.5% Nonidet P-40, 1,000 units/mL RNAsin and 1 mM […]). The total lysate is transferred to a new U bottom 96-well plate and nuclei and cell debris are pelleted with a brief spin (300×g for 3 minutes). 50 μl of supernatant is removed from the well and loaded directly onto manifold wells equipped with Nylon membranes. HCV RNA is hybridized at 58° C. overnight using a labeled HCV RNA probe containing a negative strand sequence complement to the NS5B region. Hybridization buffer is composed of 50% formamide, 5×SSPE, 1% SDS, 5×Denhart's solution, and sheared denatured salmon sperm DNA. Following hybridization, the membrane is washed with washing buffer (0.1×SSC, 0.1% SDS) at room temperature for two hours, then at 65° C. for 30 minutes. The radioactivity in each well is counted on a Microbeta counter and EC50 is calculated based on cpm.
Alternatively, HCV replicon cells are trypsinized for 5-10 minutes in a CO2 incubator. Then, cells are placed in a 15 mL tube, and are spun at 1000 rpm for 4 minutes and trypsin solution is removed. Cell pellets are washed once with PBS and spun 4 minutes at 1000 rpm.
Trypsinization and wash steps, supra, are conducted efficiently to minimize cell death. PBS is removed and cells are resuspended in 4 mL fresh PBS and cells are seeded at a dilution of 5000 cells per well to 96 well plates. Test compounds are diluted in 96 well U bottom plates with DMEM (high glucose) (BRL, Catalog #21063) supplemented with 10% FBS, L-glutamine, and non-essential amino acid. 100 uL of test compound is loaded into each well. […]
100 uL of development solution (TMB one-step substrate system) is added and plates are developed in the dark for 10 to 30 minutes. […] OD450 is measured.

[5] = biological target: T1, synthetic NS4A; assay: Competition assay for NS4A binding against [3H] labeled azidoacylthiourea; design: species or system HCV
Experimental: as §1
To study the binding specificity of [^3H] labeled 1-(5-Azido-benzofuran-2-carbonyl)-3-(4-pentyloxy-3-trifluoromethyl-phenyl)-thiourea to synthetic NS4A, several structurally related compounds are used in the following competition assays. Non-labeled 1-(5-Azido-benzofuran-2-carbonyl)-3-(4-pentyloxy-3-trifluoromethyl-phenyl)-thiourea shares the same structure with [^3H] labeled 1-(5-Azido-benzofuran-2-carbonyl)-3-(4-pentyloxy-3-trifluoromethyl-phenyl)-thiourea. 1-(5-Azido-benzofuran-2-carbonyl)-3-(4-pentyloxy-3-trifluoromethyl-phenyl)-urea differs in structure from 1-(5-Azido-benzofuran-2-carbonyl)-3-(4-pentyloxy-3-trifluoromethyl-phenyl)-thiourea in that 1-(5-Azido-benzofuran-2-carbonyl)-3-(4-pentyloxy-3-trifluoromethyl-phenyl)-urea has a carbonyl group where 1-(5-Azido-benzofuran-2-carbonyl)-3-(4-pentyloxy-3-trifluoromethyl-phenyl)-thiourea has a thiocarbonyl group. […]

Chain of full-length NS3 (Q9WMX2 1027-1657): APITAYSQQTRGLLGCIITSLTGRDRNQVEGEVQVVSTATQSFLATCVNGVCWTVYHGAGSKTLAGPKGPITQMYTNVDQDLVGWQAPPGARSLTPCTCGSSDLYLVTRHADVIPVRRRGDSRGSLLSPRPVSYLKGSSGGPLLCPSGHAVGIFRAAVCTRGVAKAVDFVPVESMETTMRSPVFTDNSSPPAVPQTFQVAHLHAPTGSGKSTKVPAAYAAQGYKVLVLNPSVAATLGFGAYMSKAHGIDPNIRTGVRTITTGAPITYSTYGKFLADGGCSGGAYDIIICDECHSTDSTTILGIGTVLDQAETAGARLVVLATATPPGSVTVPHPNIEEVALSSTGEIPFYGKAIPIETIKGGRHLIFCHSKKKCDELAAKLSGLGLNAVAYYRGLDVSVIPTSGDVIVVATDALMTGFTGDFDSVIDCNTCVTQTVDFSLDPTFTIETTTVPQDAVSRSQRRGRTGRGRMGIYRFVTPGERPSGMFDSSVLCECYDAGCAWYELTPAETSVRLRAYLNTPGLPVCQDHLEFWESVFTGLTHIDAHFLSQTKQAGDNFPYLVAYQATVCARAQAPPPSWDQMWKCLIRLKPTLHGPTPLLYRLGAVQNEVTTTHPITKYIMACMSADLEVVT

CCCCCOc1ccc(NC(=S)NC(=O)c2cc3cc(N=[N+]=[N-])ccc3o2)cc1C(F)(F)F [1-(5-Azido-benzofuran-2-carbonyl)-3-(4-pentyloxy-3-trifluoromethyl-phenyl)-thiourea]
binding to full-length NS3 [1]: weak binding signals
binding to NS3 protease domain [2]: weak binding signals
binding to synthetic NS4A [3]: binds to synthetic NS4A; also recorded: two radioactive bands

CCCCCOc1ccc(NC(=O)NC(=O)c2cc3cc(N=[N+]=[N-])ccc3o2)cc1C(F)(F)F [1-(5-Azido-benzofuran-2-carbonyl)-3-(4-pentyloxy-3-trifluoromethyl-phenyl)-urea]
anti-HCV activity in replicon cells [4]: does not exhibit any anti-HCV activity
competition with [3H] labeled azidoacylthiourea for NS4A binding [5]: does not compete; also recorded: abolish this competition capacity

CCCCCOc1ccc(NC(=S)NC(=O)c2cccnc2)cc1C(F)(F)F [1-(4-Pentyloxy-3-trifluoromethyl-phenyl)-3-(pyridine-3-carbonyl)-thiourea]
anti-HCV activity in replicon cells [4]: exhibit anti-HCV activities
competition with [3H] labeled azidoacylthiourea for NS4A binding [5]: effectively compete

CCCCCOc1ccc(NC(=S)NC(=O)c2cc3ccccc3o2)cc1C(F)(F)F [1-(Benzofuran-2-carbonyl)-3-(4-pentyloxy-3-trifluoromethyl-phenyl)-thiourea]
anti-HCV activity in replicon cells [4]: exhibit anti-HCV activities
competition with [3H] labeled azidoacylthiourea for NS4A binding [5]: effectively compete
